Consider 33 molecules from patent publication KR20190126525A, “신규 소듐채널 저해 화합물, 이의 제조방법, 및 이를 포함하는 소듐채널 관련 질환의 예방 또는 치료용 약학적 조성물” (이화여자대학교 산학협력단, priority 2018, dated 2019).

The target of one assay is T1, Nav1.7 (Homo sapiens, UniProt Q15858).
T1 construct: host or cells: HEK cells
Description: VIPR (voltage/ion probe reader) membrane potential assay, Nav1.7. It counts as cell-based. The settings on record: for inhibition at 10 µM: HEK293, HEK cells expressing hNav1.7, veratridine; for selective inhibitory activity against Nav1.7: Nav1.7 versus Nav1.8, 10uM, from Table 2.

The next assay has as its target T2, Nav1.8 (Homo sapiens, UniProt Q9Y5Y9).
T2 construct: host or cells: HEK cells
Description: VIPR (voltage/ion probe reader) membrane potential assay, Nav1.8. The settings on record: HEK293, HEK cells expressing hNav1.8, veratridine. It counts as cell-based.

T1 sequence (Q15858 whole entry): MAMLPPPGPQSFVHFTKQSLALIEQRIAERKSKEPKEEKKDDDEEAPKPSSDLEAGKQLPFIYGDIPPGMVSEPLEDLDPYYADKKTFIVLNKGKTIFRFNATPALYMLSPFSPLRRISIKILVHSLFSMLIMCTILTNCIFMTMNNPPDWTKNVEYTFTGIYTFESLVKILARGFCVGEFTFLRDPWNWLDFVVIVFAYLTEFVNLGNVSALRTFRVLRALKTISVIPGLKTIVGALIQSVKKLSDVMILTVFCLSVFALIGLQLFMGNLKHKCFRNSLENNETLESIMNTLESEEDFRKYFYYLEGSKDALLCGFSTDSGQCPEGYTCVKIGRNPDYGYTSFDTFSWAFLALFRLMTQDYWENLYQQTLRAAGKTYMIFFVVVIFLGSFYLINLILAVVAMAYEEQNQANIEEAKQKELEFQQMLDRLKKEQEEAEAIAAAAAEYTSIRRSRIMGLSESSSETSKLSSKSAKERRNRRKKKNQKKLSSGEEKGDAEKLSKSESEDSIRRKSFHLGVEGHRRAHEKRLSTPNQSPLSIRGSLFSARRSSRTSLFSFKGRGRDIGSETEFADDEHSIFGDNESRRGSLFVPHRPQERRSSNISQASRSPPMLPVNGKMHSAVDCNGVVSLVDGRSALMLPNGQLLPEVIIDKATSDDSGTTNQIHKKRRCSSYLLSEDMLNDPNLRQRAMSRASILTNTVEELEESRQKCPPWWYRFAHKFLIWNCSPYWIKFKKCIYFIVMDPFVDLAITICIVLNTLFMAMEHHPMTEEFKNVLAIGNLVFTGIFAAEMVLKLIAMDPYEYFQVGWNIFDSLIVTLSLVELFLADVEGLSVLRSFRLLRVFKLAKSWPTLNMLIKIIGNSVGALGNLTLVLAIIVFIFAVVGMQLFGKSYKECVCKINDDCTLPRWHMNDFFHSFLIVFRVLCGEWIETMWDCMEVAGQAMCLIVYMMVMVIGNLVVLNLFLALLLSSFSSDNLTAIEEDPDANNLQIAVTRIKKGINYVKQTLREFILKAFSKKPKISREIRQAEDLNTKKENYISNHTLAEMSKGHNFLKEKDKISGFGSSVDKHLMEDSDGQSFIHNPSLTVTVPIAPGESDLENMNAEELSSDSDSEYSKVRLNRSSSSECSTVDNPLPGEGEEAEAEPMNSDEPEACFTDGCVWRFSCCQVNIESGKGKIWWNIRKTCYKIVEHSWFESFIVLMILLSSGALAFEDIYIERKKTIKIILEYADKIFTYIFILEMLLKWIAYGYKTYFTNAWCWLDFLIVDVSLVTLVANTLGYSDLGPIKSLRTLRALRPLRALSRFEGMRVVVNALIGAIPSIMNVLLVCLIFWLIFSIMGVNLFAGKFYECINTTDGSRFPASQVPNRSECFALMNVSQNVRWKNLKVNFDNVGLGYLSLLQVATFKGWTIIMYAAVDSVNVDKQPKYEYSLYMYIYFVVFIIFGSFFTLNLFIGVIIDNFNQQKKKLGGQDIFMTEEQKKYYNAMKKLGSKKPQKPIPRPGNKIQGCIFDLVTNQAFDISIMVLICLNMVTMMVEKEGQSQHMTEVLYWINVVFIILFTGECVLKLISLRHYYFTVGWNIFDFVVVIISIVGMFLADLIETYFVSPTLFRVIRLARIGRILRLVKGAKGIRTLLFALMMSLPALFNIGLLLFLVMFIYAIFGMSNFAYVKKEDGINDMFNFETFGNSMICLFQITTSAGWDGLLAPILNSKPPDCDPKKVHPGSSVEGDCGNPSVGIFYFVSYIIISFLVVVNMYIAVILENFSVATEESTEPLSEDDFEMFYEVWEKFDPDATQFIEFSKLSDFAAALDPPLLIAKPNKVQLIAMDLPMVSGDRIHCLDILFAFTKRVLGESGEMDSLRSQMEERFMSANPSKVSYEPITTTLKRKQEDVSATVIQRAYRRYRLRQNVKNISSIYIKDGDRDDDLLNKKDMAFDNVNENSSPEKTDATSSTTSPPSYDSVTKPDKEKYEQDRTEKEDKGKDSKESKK
T2 sequence (Q9Y5Y9 whole entry): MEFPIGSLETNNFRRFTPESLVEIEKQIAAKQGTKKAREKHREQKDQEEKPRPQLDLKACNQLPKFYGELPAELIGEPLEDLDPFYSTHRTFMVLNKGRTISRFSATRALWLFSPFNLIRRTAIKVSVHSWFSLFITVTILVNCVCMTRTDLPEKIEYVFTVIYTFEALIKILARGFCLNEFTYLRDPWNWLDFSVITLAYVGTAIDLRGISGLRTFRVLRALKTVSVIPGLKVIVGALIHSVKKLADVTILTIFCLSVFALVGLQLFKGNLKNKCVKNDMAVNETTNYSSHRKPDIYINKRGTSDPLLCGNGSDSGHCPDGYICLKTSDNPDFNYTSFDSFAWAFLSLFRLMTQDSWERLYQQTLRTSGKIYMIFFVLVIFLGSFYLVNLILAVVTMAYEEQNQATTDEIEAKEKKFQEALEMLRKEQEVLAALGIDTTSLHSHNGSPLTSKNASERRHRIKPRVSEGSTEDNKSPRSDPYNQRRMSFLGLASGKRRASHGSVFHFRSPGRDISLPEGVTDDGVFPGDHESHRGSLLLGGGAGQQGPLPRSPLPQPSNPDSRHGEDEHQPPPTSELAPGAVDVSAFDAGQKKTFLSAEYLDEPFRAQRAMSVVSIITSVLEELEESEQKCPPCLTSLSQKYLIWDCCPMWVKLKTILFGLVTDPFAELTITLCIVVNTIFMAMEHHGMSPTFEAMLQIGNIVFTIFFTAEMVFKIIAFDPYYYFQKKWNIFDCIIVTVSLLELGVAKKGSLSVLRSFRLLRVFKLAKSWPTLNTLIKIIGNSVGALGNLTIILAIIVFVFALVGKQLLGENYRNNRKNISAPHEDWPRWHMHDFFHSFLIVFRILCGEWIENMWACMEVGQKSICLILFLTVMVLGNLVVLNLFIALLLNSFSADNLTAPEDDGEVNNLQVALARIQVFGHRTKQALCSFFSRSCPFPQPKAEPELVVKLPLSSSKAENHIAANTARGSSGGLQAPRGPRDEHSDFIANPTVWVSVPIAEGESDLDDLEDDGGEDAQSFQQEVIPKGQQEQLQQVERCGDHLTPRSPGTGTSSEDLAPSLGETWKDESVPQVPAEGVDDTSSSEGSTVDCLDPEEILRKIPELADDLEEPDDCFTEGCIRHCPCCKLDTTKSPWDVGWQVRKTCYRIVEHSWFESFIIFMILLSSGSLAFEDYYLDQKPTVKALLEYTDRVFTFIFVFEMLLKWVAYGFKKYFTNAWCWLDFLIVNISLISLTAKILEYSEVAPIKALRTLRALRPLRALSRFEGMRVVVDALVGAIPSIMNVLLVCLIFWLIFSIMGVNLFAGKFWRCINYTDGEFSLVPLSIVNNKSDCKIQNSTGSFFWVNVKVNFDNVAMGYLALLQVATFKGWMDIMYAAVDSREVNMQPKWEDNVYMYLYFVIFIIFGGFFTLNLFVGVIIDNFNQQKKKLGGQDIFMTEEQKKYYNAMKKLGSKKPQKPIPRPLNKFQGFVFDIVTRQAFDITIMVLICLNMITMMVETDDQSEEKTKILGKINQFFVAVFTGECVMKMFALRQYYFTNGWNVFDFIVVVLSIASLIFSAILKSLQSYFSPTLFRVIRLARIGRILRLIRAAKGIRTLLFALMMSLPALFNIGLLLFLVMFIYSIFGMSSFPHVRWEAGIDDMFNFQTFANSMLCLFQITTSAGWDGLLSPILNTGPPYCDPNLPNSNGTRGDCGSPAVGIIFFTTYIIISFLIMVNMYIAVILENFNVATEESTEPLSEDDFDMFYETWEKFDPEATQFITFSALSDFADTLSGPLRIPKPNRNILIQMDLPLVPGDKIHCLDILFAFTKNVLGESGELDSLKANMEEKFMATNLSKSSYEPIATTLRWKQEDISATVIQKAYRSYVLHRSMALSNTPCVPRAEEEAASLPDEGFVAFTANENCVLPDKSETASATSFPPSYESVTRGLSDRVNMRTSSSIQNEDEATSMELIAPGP

By inhibition is commonly meant the change of the read-out against control, counted positive when it falls. As to `COc1cc(CNC(=O)c2ccc3ccccc3n2)cc(OC)c1OC` [실시예 41, N-(3,4,5-트리메톡시벤질)퀴놀린-2-카복스아미드], at Nav1.7, the inhibition at 10 µM was found to be 71.7% and the “selective inhibitory activity against Nav1.7” value (from here on “selective inhibitory activity”) is given as “선택적인 저해 활성”. For the same molecule, the inhibition at 10 µM at Nav1.8 was 19.3%. Regarding `CC(CCc1ccccc1)NCc1c[nH]c2ccc(Cl)cc12` (stereo not shown) [실시예 21, N-((5-클로로-1H-인돌-3-일)메틸)-4-페닐부탄-2-아민], on Nav1.7, the inhibition at 10 µM was found to be 38.5%. The same measure, in the same setting: the value for `CC(CCc1ccccc1)NCc1ccc(Oc2ccc(Cl)cc2)cc1` (stereo not shown) [실시예 24, N-(4-(4-클로로페녹시)벤질)-4-페닐부탄-2-아민] was 10.2%. The same measure, in the same setting: the value for `COc1cc(CNCc2c[nH]c3cc(F)ccc23)cc(OC)c1OC` [실시예 35, 1-(6-플루오로-1H-인돌-3-일)-N-(3,4,5-트리메톡시벤질)메탄아민] was 38.2%. As to `CC(CCc1ccccc1)NC(=O)c1ccc(-c2ccccc2)cc1` (stereo not shown) [실시예 25, N-(4-페닐부탄-2-일)-[1,1'-바이페닐]-4-카복스아미드], at Nav1.7, the inhibition at 10 µM was found to be 84% and the “selective inhibitory activity” value is on record as “선택적인 저해 활성”. Moreover, on Nav1.8, the inhibition at 10 µM is 31.2%. The like results for `CC(CCc1ccccc1)NCc1ccc(N2CCN(C)CC2)cc1` (stereo not shown) [실시예 13, N-(4-(4-메틸피페라진-1-일)벤질)-4-페닐부탄-2-아민] were, in that order, 66.4%, “선택적인 저해 활성” and 4.97%.

As to `COc1ccc2[nH]cc(CNCc3cc(OC)c(OC)c(OC)c3)c2c1` [실시예 36, 1-(5-메톡시-1H-인돌-3-일)-N-(3,4,5-트리메톡시벤질)메탄아민], the inhibition at 10 µM on Nav1.7 worked out at 23.7%. Regarding `NC(=O)[C@@H](NCc1c[nH]c2ccc(Cl)cc12)c1ccccc1` [실시예 7, (S)-2-((5-클로로-1H-인돌-3-일)메틸아미노)-2-페닐아세트아미드], the inhibition at 10 µM against Nav1.8 worked out at 3.45%. For `COc1cc(CNCc2c(-c3ccccc3)[nH]c3ccccc23)cc(OC)c1OC` [실시예 30, 1-(2-페닐-1H-인돌-3-일)-N-(3,4,5-트리메톡시페닐)메탄아민], the inhibition at 10 µM was determined as 12.1% against Nav1.7 and 3.3% at Nav1.8. The like results for `NC(=O)[C@@H](NCc1ccc(Oc2ccc(F)cc2)cc1)c1ccccc1` [실시예 10, (S)-2-(4-(4-플루오로페녹시)벤질아미노)-2-페닐아세트아미드] were, in that order, 31.3% and 11.3%. Consider `COc1ccc(-c2ccc(CNC(C)CCc3ccccc3)o2)cc1Cl` (stereo not shown) [실시예 18, N-((5-(3-클로로-4-메톡시페닐)퓨란-2-일)메틸)-4-페닐부탄-2-아민], for which, on Nav1.7, the inhibition at 10 µM is 65.9% and the “selective inhibitory activity” value is “선택적인 저해 활성”. The inhibition at 10 µM at Nav1.8 was found to be 6.75%. In the case of `C[C@H](NCc1c[nH]c2ccc(Cl)cc12)C(N)=O` [실시예 3, (S)-2-((5-클로로-1H-인돌-3-일)메틸아미노)프로판아미드], the inhibition at 10 µM came out at 2.46% at Nav1.7 and 20.7% at Nav1.8. As to `CC(CCc1ccccc1)NCc1ccc(N2CCOCC2)cc1` (stereo not shown) [실시예 14, N-(4-모폴리노벤질)-4-페닐부탄-2-아민], the figures for the inhibition at 10 µM against Nav1.7 and against Nav1.8 were 87.1% and 10.2%, respectively. In addition, on Nav1.7, the “selective inhibitory activity” value is on record as “선택적인 저해 활성”.

For `COc1cc(CNCc2ccc(Oc3ccc(F)cc3)cc2)cc(OC)c1OC` [실시예 31, N-(4-(4-플루오로페녹시)벤질)-1-(3,4,5-트리메톡시페닐)메탄아민], the inhibition at 10 µM against Nav1.7 stood at 16.6%. Turning to `COc1cc(CNC(=O)c2ccc(-c3ccccc3)cc2)cc(OC)c1OC` [실시예 38, N-(3,4,5-트리메톡시벤질)-[1,1'-바이페닐]-4-카복스아미드], the values for the inhibition at 10 µM at Nav1.7 and against Nav1.8 were 6.9% and 18.3%, respectively.

As to `CC(CCc1ccccc1)NCc1ccc(Oc2ccc(F)cc2)cc1` (stereo not shown) [실시예 23, N-(4-(4-플루오로페녹시)벤질)-4-페닐부탄-2-아민], the inhibition at 10 µM on Nav1.7 amounted to 33.9%. Take `NC(=O)[C@@H](NCc1ccc(Oc2ccc(Cl)cc2)cc1)c1ccccc1` [실시예 11, (S)-2-(4-(4-클로로페녹시)벤질아미노)-2-페닐아세트아미드]: the inhibition at 10 µM at Nav1.7 is 3.68%; on Nav1.8 it was 19.5%. Take `C[C@H](NCc1c[nH]c2ccc(OCc3ccccc3)cc12)C(N)=O` [실시예 1, (S)-2-((5-(벤질옥시)-1H-인돌-3-일)메틸아미노)프로판아미드]: the inhibition at 10 µM was 5.13% against Nav1.7 and 19.7% on Nav1.8. For `COc1cc(CNCc2ccc(Oc3ccc(Cl)cc3)cc2)cc(OC)c1OC` [실시예 32, N-(4-(4-클로로페녹시)벤질)-1-(3,4,5-트리메톡시페닐)메탄아민], the inhibition at 10 µM at Nav1.7 was 15.2%. Same read-out and setting: the value for `COc1cc(CNCc2c[nH]c3ccccc23)cc(OC)c1OC` [실시예 29, N-((1H-인돌-3-일)메틸)-1-(3,4,5-트리메톡시페닐)메탄아민] was 16.4%; that for `Cc1onc(-c2ccc(Cl)cc2)c1C(=O)NC(C)CCc1ccccc1` (stereo not shown) [실시예 28, 3-(4-클로로페닐)-5-메틸-N-(4-페닐부탄-2-일)이속사졸-4-카복스아미드] was 24.4%. Regarding `CC(CCc1ccccc1)NCc1ccc(-c2cccc(C(F)(F)F)c2)o1` (stereo not shown) [실시예 12, 4-페닐-N-((5-(3-(트리플루오로메틸)페닐)퓨란-2-일)메틸)부탄-2-아민], on Nav1.7, the inhibition at 10 µM was determined as 104% and the “selective inhibitory activity” value is recorded as “선택적인 저해 활성”. Also, the inhibition at 10 µM at Nav1.8 was determined as 54.4%. For the molecule `COc1ccc2[nH]cc(CN[C@@H](C)C(N)=O)c2c1` [실시예 5, (S)-2-((5-메톡시-1H-인돌-3-일)메틸아미노)프로판아미드], the inhibition at 10 µM against Nav1.7 came out at 4.3%; at Nav1.8 it was 18.3%. For the molecule `C[C@H](NCc1c[nH]c2ccc(Br)cc12)C(N)=O` [실시예 2, (S)-2-((5-브로모-1H-인돌-3-일)메틸아미노)프로판아미드], the values for the inhibition at 10 µM at Nav1.7 and on Nav1.8 were 59.9% and 27.4%, respectively. At Nav1.7, the “selective inhibitory activity” value was “선택적인 저해 활성”.

With `COc1cc(CNCc2c[nH]c3c([N+](=O)[O-])cccc23)cc(OC)c1OC` [실시예 37, 1-(7-니트로-1H-인돌-3-일)-N-(3,4,5-트리메톡시벤질)메탄아민], the inhibition at 10 µM at Nav1.7 amounted to 4.08%; at Nav1.8, 8.81%. Take `CC(CCc1ccccc1)NC(=O)c1cccc2ccccc12` (stereo not shown) [실시예 27, N-(4-페닐부탄-2-일)-1-나프타미드]: the inhibition at 10 µM stood at 4.12% against Nav1.7 and 59.2% at Nav1.8. Regarding `CC(CCc1ccccc1)NCc1c[nH]c2ccccc12` (stereo not shown) [실시예 22, N-((1H-인돌-3-일)메틸)-4-페닐부탄-2-아민], the inhibition at 10 µM on Nav1.7 is 14.2%. Turning to `COc1cc(CNCc2c[nH]c3ccc(OCc4ccccc4)cc23)cc(OC)c1OC` [실시예 33, 1-(5-(벤질옥시)-1H-인돌-3-일)-N-(3,4,5-트리메톡시벤질)메탄아민], the inhibition at 10 µM against Nav1.7 was 34.9%; on Nav1.8 it was 5.87%. In the case of `CC(CCc1ccccc1)NCc1ccc(-c2cncnc2)cc1` (stereo not shown) [실시예 19, 4-페닐-N-(4-(피리미딘-5-일)벤질)부탄-2-아민], the inhibition at 10 µM at Nav1.7 turned out to be 29.8%.

`CC(CCc1ccccc1)NCc1ccc(Oc2ccc(C#N)cc2)cc1` (stereo not shown) [실시예 20, 4-(4-((4-페닐부탄-2-일)아미노메틸)페녹시)벤조나이트릴]: on Nav1.7, the inhibition at 10 µM worked out at 106% and the “selective inhibitory activity” value is given as “선택적인 저해 활성”. Further, the inhibition at 10 µM on Nav1.8 is 42.2%. On to `COc1cc(CNCc2c[nH]c3ccc(Br)cc23)cc(OC)c1OC` [실시예 34, 1-(5-브로모-1H-인돌-3-일)-N-(3,4,5-트리메톡시벤질)메탄아민], for which the inhibition at 10 µM came to 27% at Nav1.7 and 13.9% on Nav1.8. Take `NC(=O)[C@@H](NCc1cc(-c2ccc(Cl)cc2)on1)c1ccccc1` [실시예 9, (S)-2-((5-(4-클로로페닐)이속사졸-3-일)메틸아미노)-2-페닐아세트아미드]: at Nav1.8, the inhibition at 10 µM stood at 1.77%.

In the case of `CC(CCc1ccccc1)NCc1ccc(-c2ccc(Cl)cc2)o1` (stereo not shown) [실시예 15, N-((5-(4-클로로페닐)퓨란-2-일)메틸)-4-페닐부탄-2-아민], the inhibition at 10 µM at Nav1.7 was 34.6%; against Nav1.8, 42.2%.
